This is an account of results in ChEMBL document CHEMBL4028813, “Inhibitors of protein arginine deiminases and their efficacy in animal models of multiple sclerosis” (Bioorg Med Chem, 2017).

The target of data set [1] is Protein-arginine deiminase type-2 (Mus musculus, UniProt Q08642). The data set is described as follows: Inhibition of full length recombinant mouse N-terminal GST-tagged PAD2 expressed in baculovirus infected Sf9 cells using benzoyl arginine ethyl ester as substrate preincubated for 30 mins followed by substrate addition measured after 30 mins by colorimetric assay.
Protein-arginine deiminase type-2, sequence (Q08642 whole entry): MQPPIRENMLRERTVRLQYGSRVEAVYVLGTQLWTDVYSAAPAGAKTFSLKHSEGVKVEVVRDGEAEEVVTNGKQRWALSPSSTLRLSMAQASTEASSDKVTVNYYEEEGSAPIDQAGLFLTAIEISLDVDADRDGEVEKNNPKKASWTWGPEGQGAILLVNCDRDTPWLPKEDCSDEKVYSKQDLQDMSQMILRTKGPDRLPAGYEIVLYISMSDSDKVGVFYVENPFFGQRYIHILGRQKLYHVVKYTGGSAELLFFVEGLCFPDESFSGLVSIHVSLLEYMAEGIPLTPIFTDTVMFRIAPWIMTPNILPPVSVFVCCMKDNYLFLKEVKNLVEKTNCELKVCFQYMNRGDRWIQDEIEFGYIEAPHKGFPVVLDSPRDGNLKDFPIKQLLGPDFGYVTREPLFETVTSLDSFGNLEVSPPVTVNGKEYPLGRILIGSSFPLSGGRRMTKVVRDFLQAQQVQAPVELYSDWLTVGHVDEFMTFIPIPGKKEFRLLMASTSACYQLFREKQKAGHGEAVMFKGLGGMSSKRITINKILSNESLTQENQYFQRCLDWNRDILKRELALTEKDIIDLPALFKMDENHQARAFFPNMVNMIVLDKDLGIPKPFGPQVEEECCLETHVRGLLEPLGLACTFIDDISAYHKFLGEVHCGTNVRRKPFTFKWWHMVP

The target of data set [2] is T1, Protein-arginine deiminase type-4 (Homo sapiens, UniProt Q9UM07). In words: Inhibition of full length recombinant human N-terminal GST-tagged PAD4 expressed in baculovirus infected Sf9 cells up to 10 mM using benzoyl arginine ethylester as substrate preincubated for 30 mins followed by substrate addition measured after 30 mins by colorimetric assay.
T1 sequence (Q9UM07 whole entry): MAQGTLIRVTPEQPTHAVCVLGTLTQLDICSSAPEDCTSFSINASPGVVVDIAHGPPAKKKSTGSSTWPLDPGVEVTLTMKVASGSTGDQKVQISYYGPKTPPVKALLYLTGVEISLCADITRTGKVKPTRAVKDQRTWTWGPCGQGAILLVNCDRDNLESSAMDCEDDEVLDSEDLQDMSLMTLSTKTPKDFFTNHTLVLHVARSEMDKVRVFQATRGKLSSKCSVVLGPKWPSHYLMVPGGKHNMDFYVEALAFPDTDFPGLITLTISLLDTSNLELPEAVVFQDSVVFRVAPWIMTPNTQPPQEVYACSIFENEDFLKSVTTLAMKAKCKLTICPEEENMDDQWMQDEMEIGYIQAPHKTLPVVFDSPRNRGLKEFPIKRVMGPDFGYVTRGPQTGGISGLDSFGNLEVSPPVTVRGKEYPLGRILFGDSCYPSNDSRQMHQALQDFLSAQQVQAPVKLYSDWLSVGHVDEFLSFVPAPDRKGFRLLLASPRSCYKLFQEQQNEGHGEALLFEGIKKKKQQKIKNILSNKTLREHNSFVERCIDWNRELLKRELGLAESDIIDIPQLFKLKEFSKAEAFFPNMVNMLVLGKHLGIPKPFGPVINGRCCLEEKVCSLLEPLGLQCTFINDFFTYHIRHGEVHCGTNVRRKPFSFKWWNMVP
Data set [3] deals with T2, Protein-arginine deiminase type-1 (Homo sapiens) (UniProt Q9ULC6).
T2 sequence (whole entry): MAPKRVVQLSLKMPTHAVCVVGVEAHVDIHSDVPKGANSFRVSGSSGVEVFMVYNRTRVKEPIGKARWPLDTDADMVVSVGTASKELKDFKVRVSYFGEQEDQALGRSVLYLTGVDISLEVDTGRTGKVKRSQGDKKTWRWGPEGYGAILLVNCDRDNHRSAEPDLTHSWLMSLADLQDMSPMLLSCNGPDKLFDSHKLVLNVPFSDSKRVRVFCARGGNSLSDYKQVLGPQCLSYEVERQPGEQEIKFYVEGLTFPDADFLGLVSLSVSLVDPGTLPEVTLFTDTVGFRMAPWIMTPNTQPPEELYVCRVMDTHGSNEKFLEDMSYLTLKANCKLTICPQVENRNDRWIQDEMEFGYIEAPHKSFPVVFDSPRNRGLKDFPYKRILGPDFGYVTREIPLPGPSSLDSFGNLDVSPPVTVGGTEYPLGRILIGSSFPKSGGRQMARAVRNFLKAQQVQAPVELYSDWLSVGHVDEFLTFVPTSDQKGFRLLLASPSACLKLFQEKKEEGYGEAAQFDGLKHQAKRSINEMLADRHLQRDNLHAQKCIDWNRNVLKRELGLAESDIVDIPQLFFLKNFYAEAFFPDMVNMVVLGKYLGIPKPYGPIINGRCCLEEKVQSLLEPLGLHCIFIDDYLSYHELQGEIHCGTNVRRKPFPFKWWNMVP
In words: Inhibition of human PAD1 up to 10 mM using benzoyl arginine ethylester as substrate preincubated for 30 mins followed by substrate addition measured after 30 mins by colorimetric assay.

In data set [4] the target is Protein-arginine deiminase type-2 (Mus musculus) (UniProt Q08642). In words: Inhibition of full length recombinant mouse N-terminal GST-tagged PAD2 expressed in baculovirus infected Sf9 cells up to 10 mM using benzoyl arginine ethyl ester as substrate preincubated for 30 mins followed by substrate addition measured after 30 mins by colorimetric assay.
Protein-arginine deiminase type-2 (Mus musculus), sequence (Q08642 whole entry): as the sequence (Q08642 whole entry) above
The subject of data set [5] is Mus musculus. The data set is described as follows: Antiinflammatory activity MOG peptide/complete freund's adjuvant/pertussis toxin-induced C57BL/6 mouse autoimmune encephalomyelitis model assessed as reduction in scar tissue around blood vessels in brain at 100 mg/kg, ip administered once daily for 40 days measured post last dose by LFB/H and E staining based assay. Format: functional, organism-based.

The nature of data set [6]: Elimination rate constant in C57BL/6 mouse serum at 100 mg/kg, ip administered as single dose by UPLC-MS analysis. Format: ADME, organism-based.
Data set [7] relates to Mus musculus. The data set is described as follows: Antiinflammatory activity in MOG peptide/complete freund's adjuvant/pertussis toxin-induced C57BL/6 mouse autoimmune encephalomyelitis model assessed as reduction in accumulation of MAC3 positive cells in brain at 100 mg/kg, ip administered once daily for 40 days measured post last dose. Format: functional, organism-based.

Data set [8] can be described thus: Tmax in C57BL/6 mouse serum at 100 mg/kg, ip administered as single dose by UPLC-MS analysis. The format is ADME, organism-based.
The nature of data set [9]: Half life in C57BL/6 mouse serum at 100 mg/kg, ip administered as single dose by UPLC-MS analysis. The format is ADME, organism-based.
For data set [10], the system named is Mus musculus. The data set is described as follows: Antiinflammatory activity in MOG peptide/complete freund's adjuvant/pertussis toxin-induced C57BL/6 mouse autoimmune encephalomyelitis model assessed as improvement in physical disability at 100 mg/kg, ip administered once daily for 40 days measured daily during compound dosing. Format: functional, organism-based.

For data set [11], the system named is Mus musculus. In words: Antiinflammatory activity in ip dosed MOG peptide/complete freund's adjuvant/pertussis toxin-induced C57BL/6 mouse autoimmune encephalomyelitis model assessed as improvement in physical disability administered once daily for 40 days measured daily during compound dosing. Format: functional, organism-based.
Data set [12] relates to Mus musculus. In words: Antiinflammatory activity in MOG peptide/complete freund's adjuvant/pertussis toxin-induced C57BL/6 mouse autoimmune encephalomyelitis model assessed as reduction in accumulation of CD3 positive cells in brain at 100 mg/kg, ip administered once daily for 40 days measured post last dose. Format: functional, organism-based.
Data set [13] in a line: Half life in C57BL/6 mouse brain at 100 mg/kg, ip administered as single dose by UPLC-MS analysis. The format is ADME, organism-based.
For data set [14], the system named is Mus musculus. In words: Neuroprotective activity in CPZ-induced demyelination C57BL/6 mouse model assessed as increase in myelin content at 100 mg/kg, ip dosed daily for 6 weeks measured post last dose by LFB staining based immunohistochemical method. Format: functional, organism-based.
Data set [15] is described as follows: Tmax in C57BL/6 mouse brain at 100 mg/kg, ip administered as single dose by UPLC-MS analysis. The format is ADME, organism-based.
A short description of data set [16]: Cmax in C57BL/6 mouse serum at 100 mg/kg, ip administered as single dose by UPLC-MS analysis. The format is ADME, organism-based. Details: dose 100 mg/kg, route intraperitoneal.
In data set [17] the test system is Mus musculus. In words: Antiinflammatory activity in MOG peptide/complete freund's adjuvant/pertussis toxin-induced C57BL/6 mouse autoimmune encephalomyelitis model assessed as reduction in inflammatory lesions in brain at 100 mg/kg, ip administered once daily for 40 days measured post last dose by hematoxylin and eosin/Luxol-fast blue staining based assay. The format is functional, organism-based.

The subject of data set [18] is Mus musculus. The data set is described as follows: Antiinflammatory activity in MOG peptide/complete freund's adjuvant/pertussis toxin-induced C57BL/6 mouse autoimmune encephalomyelitis model assessed as improvement in physical disability at 50 mg/kg, ip administered once daily for 40 days measured daily during compound dosing. The format is functional, organism-based.

In data set [19] the test system is Mus musculus. The data set is described as follows: Toxicity in MOG peptide/complete freund's adjuvant/pertussis toxin-induced C57BL/6 mouse autoimmune encephalomyelitis model assessed as change in body weight at 50 mg/kg, ip administered once daily for 40 days measured during compound dosing. The format is organism-based. The conditions noted are these: in vivo, 960 h.

Data set [20] in a line: Elimination rate constant in C57BL/6 mouse brain at 100 mg/kg, ip administered as single dose by UPLC-MS analysis. The format is ADME, organism-based.
Data set [21] is described as follows: AUC (0 to 360 mins) in C57BL/6 mouse brain at 100 mg/kg, ip administered as single dose by UPLC-MS analysis. Format: ADME, organism-based. More on the design: dose 100 mg/kg, time < 6 hr, route intraperitoneal.
In data set [22] the target is T1, Protein-arginine deiminase type-4. The data set is described as follows: Inhibition of full length recombinant human N-terminal GST-tagged PAD4 expressed in baculovirus infected Sf9 cells using benzoyl arginine ethylester as substrate preincubated for 30 mins followed by substrate addition measured after 30 mins by colorimetric assay.
Data set [23] concerns Mus musculus. In words: Antiinflammatory activity in MOG peptide/complete freund's adjuvant/pertussis toxin-induced C57BL/6 mouse autoimmune encephalomyelitis model assessed as increase in myelin content at 100 mg/kg, ip administered once daily for 40 days measured post last dose by LFB /H and E staining based assay. Format: functional, organism-based.
The test system of data set [24] is Mus musculus. In words: Toxicity in MOG peptide/complete freund's adjuvant/pertussis toxin-induced C57BL/6 mouse autoimmune encephalomyelitis model assessed as change in body weight at 100 mg/kg, ip administered once daily for 40 days measured during compound dosing. Format: organism-based. To be noted: in vivo, 960 h.
Data set [25] can be described thus: Toxicity in MOG peptide/complete freund's adjuvant/pertussis toxin-induced C57BL/6 mouse autoimmune encephalomyelitis model assessed as death at 50 mg/kg, ip administered once daily for 40 days measured during compound dosing (reference value: 20%). Format: organism-based. The conditions noted are these: in vivo, read-out: Activity.
Data set [26] can be described thus: AUC (0 to 360 mins) in C57BL/6 mouse serum at 100 mg/kg, ip administered as single dose by UPLC-MS analysis. Format: ADME, organism-based. More on the design: time < 6 hr, dose 100 mg/kg, route intraperitoneal.
A short description of data set [27]: Cmax in C57BL/6 mouse brain at 100 mg/kg, ip administered as single dose by UPLC-MS analysis. Details: dose 100 mg/kg, route intraperitoneal. The format is ADME, organism-based.
Data set [28] in a line: Toxicity in MOG peptide/complete freund's adjuvant/pertussis toxin-induced C57BL/6 mouse autoimmune encephalomyelitis model assessed as death at 100 mg/kg, ip administered once daily for 40 days measured during compound dosing (reference value: 21%). The format is organism-based. To be noted: in vivo, read-out: Activity.
Data set [29] addresses T3, Protein-arginine deiminase type-1 (Homo sapiens, UniProt Q9ULC6).
T3 sequence (Q9ULC6 whole entry): T2 sequence (whole entry)
In words: Inhibition of human PAD1 using BAEE as substrate preincubated for 30 mins followed by substrate addition measured after 30 mins by colorimetric assay.

Calls of active or inactive are those of the source.

A word on the Ki: it is a measure of affinity in units of concentration, obtained from inhibition or displacement. `CC1(C)NC(=O)N(CCN2CCNCC2)C1=O`: in data set [1], the Ki was determined as 714 µM. For the same molecule, the inhibition entry in [2] and in [3] was “inactive” throughout.

With `CC1(C)NC(=O)N(CCn2ccnn2)C1=O`, the inhibition result in [4], in data set [2] and in data set [3] was “inactive” throughout.

The Tmax is the time at which the peak concentration occurs. What is called half-life is the time needed for the level to fall by half in the phase considered. A higher half-life goes with slow decline. Broadly, the Cmax is the maximum level reached in the sampled fluid or tissue. As usually defined, the AUC(0-t) is the area under the concentration-time curve up to a stated or last time point. Lower therefore signals less exposure. On to `CC1(C)NC(=O)N(CCn2ccnc2)C1=O`, for which the result in the data set with Mus musculus [5], with Mus musculus [7], in the data set on Mus musculus [10], in the data set on Mus musculus [12], in the data set with Mus musculus [14] and in the data set on Mus musculus [17] was Active. Besides, the outcome in the data set with Mus musculus [23] was Active. Further, the results for the Ki in data set [1] and in data set [22] were 4620 µM and 632 µM, respectively. Also, the k el in [6] is 0.000917 s⁻¹; in data set [20], 0.000117 s⁻¹. Further, the Tmax in data set [8] was 5 min; in data set [15], 45 min. The half-life in [9] is 12.6 min; in data set [13], 99 min. Besides, the Activity result in the data set with Mus musculus [11] is “Dose-dependent effect”; with Mus musculus [19], “Non-Toxic”; in the data set with Mus musculus [24] it was “Non-Toxic”. Moreover, the figures for the Cmax in data set [16] and in data set [27] were 79900 ng/mL and 7.3 ng/mL, respectively. Further, the outcome with Mus musculus [18] was inactive. Also, the AUC(0-t) at 6 h in data set [21] was 12.3 ng·h/mL; in data set [26] it was 28000 ng·h/mL. The mortality at 960 h in data set [25] was found to be 29%; in data set [28], 0%. The inhibition entry in data set [3] is “inactive”.

With `Cc1cnc(C)n1CCN1C(=O)NC(C)(C)C1=O`, the inhibition result in data set [4], in data set [2] and in data set [3] was “inactive” each time.

For `Cc1cn(CCN2C(=O)NC(C)(C)C2=O)cn1`, the inhibition entry in [4], in data set [2] and in data set [3] was “inactive” in each case.

Regarding `CC(C)c1nccn1CCN1C(=O)NC(C)(C)C1=O`, the inhibition result in data set [4], in data set [2] and in data set [3] was “inactive” each time.

In the case of `CN1CCN(CCN2C(=O)NC(C)(C)C2=O)CC1`, the inhibition entry in data set [4], in data set [2] and in data set [3] was “inactive” throughout.

On to `CC1(C)NC(=O)N(CN2CCNCC2)C1=O`, for which the values for the Ki in [1], in [22] and in [29] were 179 µM, 183 µM and 445 µM, respectively. Besides, in the data set with Mus musculus [10], the outcome was Active. Moreover, the Activity result in the data set on Mus musculus [24] is given as “Non-Toxic”.

Take `CC1(C)NC(=O)N(CCn2cncc2CO)C1=O`: the inhibition entry in [4], in data set [2] and in data set [3] was “inactive” in each case.

`CC1(C)NC(=O)N(CCn2cncn2)C1=O`: the inhibition entry in data set [4], in [2] and in [3] was “inactive” in each case.

In the case of `CC1(C)NC(=O)N(CCN2CCCC2)C1=O`, the inhibition entry in [4] and in data set [3] was “inactive” throughout. Further, in data set [22], the Ki stood at 4640 µM.

Consider `Cc1nccn1CCN1C(=O)NC(C)(C)C1=O`, for which the inhibition result in [4] and in data set [2] was “inactive” in each case. The molecule also displayed a Ki in data set [29] of 2420 µM.

Turning to `CC1(C)NC(=O)N(CCc2nnn[nH]2)C1=O`, the inhibition constant Ki in data set [1] was found to be 30 µM; in data set [29], 384 µM. Also, the outcome in the data set with Mus musculus [7], with Mus musculus [10], in the data set with Mus musculus [12] and in the data set on Mus musculus [17] was Active. Besides, in the data set on Mus musculus [24], the Activity entry is “Non-Toxic”. For the same molecule, in [28], the mortality at 960 h is 8%.

Consider `CC1(C)NC(=O)N(CCN2CCOCC2)C1=O`, for which the Ki in [22] amounted to 1430 µM; in [29], 602 µM.
